Here are results for 1 compound from patent publication US6403084B1, “Mixed cultures for improved fermentation and aerobic stability of silage” (Pioneer Hi-Bred International, Inc., priority 2000, dated 2002).

Data set [1] in a line: Aerobic stability of inoculated high moisture corn silage (1999 HMC field trials, PVC silos). As to the method: High moisture corn was harvested by combine at 22 to 28% moisture. Harvested grain was processed with a roller mill with rollers set at a gap width of approximately 3 mm.
Inoculants were formulated to deliver the appropriate rate as give in Table 2. A 30 cc syringe fitted with a 16-gauge needle was used to apply the inoculants to the forage at a rate of 1 ml/lb. The inoculants were mixed with the forage by rolling on clean plastic.
For each treatment two 4″×14″ PVC silos with air infusion holes near the top and bottom of the silo were filled with 2.5 kg of forage. Experimental silos were fitted with rubber quick caps at each end, the top having a bunsen valve to allow gas to escape. The silos were then kept in an environmentally controlled room until opening.
Two pre-ensiled forage samples were taken while filling during each trial for pH and microbial analysis. Lactic acid bacteria (LAB) were enumerated on modified DeMann-Rogosa-Sharpe (MRS) agar and yeasts and molds on Sabouraud Dextrose agar. Dry matter (DM) was determined by drying to a constant weight for 72 hours at 55° C. in a forced air oven. Inoculum was plated on modified MRS agar. Silos were opened after approximately 60 days, emptied and mixed. Samples were taken for pH, DM, digestibility, and aerobic stability analyses.
Aerobic stabilty was determined by placing 500 g of silage into a plastic tub with holes in the lid and bottom, placing a temperature probe in the center of the silage mass and placing the tub into a styrofoam cooler (Honig, Das Wirtschaftseigene Futter (1975) 21:25-32). The coolers were then kept in a temperature-controlled room where the ambient temperature and silage temperature were recorded by a datalogger every three hours for one week. DM was determined as per the pre-ensiled samples. Dried samples from the DM determination were ground through a 4 mm Wiley Mill screen and scanned by near infrared spectroscopy (NIRS).

Data set [2] is described as follows: Aerobic stability of inoculated whole plant corn silage (WPCS fall field trials, PVC silos). How it is done: Whole plant corn forage was harvested at approximately 2/3 milk line with a 2-row pull type forage chopper. Theoretical chop length was […].
A 30 cc syringe fitted with a 16-gauge needle was used to apply the inoculants to the forage at a rate of 1 ml/lb. The inoculants were mixed with the forage by rolling on clean plastic.
For each treatment two 4″×14″ PVC silos with air infusion holes near the top and bottom of the silo were filed with 1123 g, 1173 g, 1271 g, 1144 g, 1459 g, 1278 g, 1207 g and 1097 g of forage. Experimental silos were fitted with rubber quick caps at each end, the top having a bunsen valve to allow gas to escape. The silos were then weighed for dry matter recovery. After filing, the silos were kept in an environmentally controlled room until opening and air infused for 24 hours on day 28.
Three pre-ensiled forage samples were taken while filling during each trial for pH and microbial analysis. Lactic acid bacteria (LAB) were enumerated on modified MRS agar and yeasts and molds on Sabouraud Dextrose agar. Dry matter was determined by drying to a constant weight for 72 hours at 55° C. in a forced air oven. Inoculum was plated on modified MRS agar. Silos were opened after 50 days emptied and mixed. Samples were taken for pH, DM and aerobic stability analyses.
Aerobic stability was determined by placing 100 g of dry matter of silage into a plastic tub with holes in the lid and bottom, placing a temperature probe in the center of the silage mass and placing the tub into a styrofoam cooler (Honig, Das Wirtschaftseigene Futter (1975) 21:25-32). The coolers were then kept in a temperature-controlled room where the ambient temperature and silage temperature were recorded by a datalogger every three hours for one week. DM was determined as per the pre-ensiled samples. Frozen samples of selected samples were submitted for VFA analysis according to standard protocols.

Structures are written as SMILES.

`CCC(=O)O` [PROP, Propionic acid]: the “improvement of aerobic stability” value in data set [1] came to 94 h. For the same compound, the “improvement of aerobic stability (in words)” value in data set [1] is given as “effective in all trials”. The results for the Loss in data set [1] (number of HMC field trials with 24 hour decrease in stability compared to control) and in data set [2] (number of WPCS trials (of 8) with 24 hour decrease in stability compared to control) were 0 and 2, respectively. Further, the results for the Win in data set [1] (number of HMC field trials with 24 hour increase in stability compared to control) and in data set [2] (number of WPCS trials (of 8) with 24 hour increase in stability compared to control) were 8 and 3, respectively. In addition, the “No Difference” value in data set [1] (number of HMC field trials with no difference from control) turned out to be 0. Further, in data set [2] (number of WPCS trials (of 8) with no effect), the “No Effect” value was 3.
